Measurements from patent US6630310B1, “Assay for binding between carbohydrate and glycolipid” (Biopolymer Engineering Pharmaceutical, Inc., priority 1996, dated 2003).

Experiments:
[1] = system: neutrophil (human blood leukocyte) membranes; assay: ^3H-PGG-Glucan binding to neutrophil membranes; conditions: PMN versus mononuclear cells
Method: The distribution of the receptor for underivatized, aqueous soluble β(1-3)-glucan across various cell lines and human tissues was determined by assessing the binding of radioactively labeled underivatized, aqueous soluble β(1-3)-glucan to membranes derived from a variety of cell types (see Table 2). The amount of radioactively labeled underivatized, aqueous soluble β(1-3)-glucan binding is expressed as mean±standard deviation in ng/mg membrane protein. The non-specific binding is defined as radioactively labeled underivatized, aqueous soluble β(1-3)-glucan bound in the presence of greater than 100-fold excess unlabeled underivatized, aqueous soluble β(1-3)-glucan. The specific binding is determined by (Total Binding)−(Non-Specific Binding), with the number in parenthesis in Table 2 representing the percent total binding. Quantitation of complement receptor 3 (CR3) was carried out by flow cytometry using fluorescently-labeled anti-CD11b, and data are expressed as mean channel fluorescence (MCF) in arbitrary fluorescence units; background fluorescence for isotype controls were subtracted. The neutrophil sample was greater than 95 percent neutrophils by histology. […]
Membranes were diluted to 2 to 5 mg/ml in HBSS with and without 1 mg/ml BSA. […] No radioactivity was found in the oil layer in the absence of added membranes. […]

[2] = system: human leukocyte membranes; assay: Direct binding of radioactively labeled underivatized, aqueous soluble β(1-3)-glucan to human leukocyte membranes (time course, concentration-dependence, Scatchard)
Method: Bound radioactively labeled underivatized, aqueous soluble β(1-3)-glucan was separated from unbound ligand by centrifugation through a double layer density gradient, and the membrane pellet was solubilized and radioactivity determined. Equilibrium binding was achieved after 60 minutes at 37° C. at a concentration of 1 μg/ml radioactively labeled underivatized, aqueous soluble β(1-3)-glucan (FIG. 1).
Membrane-associated radioactivity was determined following centrifugation of the reaction mixture through a sucrose/oil density gradient as described in the Examples. Specific binding was calculated by subtracting non-specific binding from total binding. […]
Membranes were diluted to 2 to 5 mg/ml in HBSS with and without 1 mg/ml BSA. […] The tubes were spun at 15,000×g for 4-5 minutes and the tips containing the membrane pellets were removed, incubated in 300 μl SOLVABLE™ (New England Nuclear, Boston, Mass.) overnight at 50° C. to dissolve the pellet, and then radioactivity determined by liquid scintillation counting. No radioactivity was found in the oil layer in the absence of added membranes. […]

NF-IL6 = assay: EMSA of NF-IL6 activation in BMC2.3 cells; type: cell-based, murine; conditions: 3 μg/ml, various times at 37° C. (FIG. 5)
Method: In order to assess the activation of signal transduction as exemplified by the modulation of one or more transcriptional regulatory factors by underivatized, aqueous soluble β(1-3)-glucan, BMC2.3 cells were incubated with 3 μg/ml underivatized, aqueous soluble β(1-3)-glucan for various periods of time at 37° C. Nuclear extracts were prepared and incubated with ^32P-labeled DNA oligonucleotides specific for NF-κB or NF-IL6. The protein-^32P DNA complexes were separated from unbound ^32P DNA by gel electrophoresis (electrophoretic mobility shift assay, EMSA).
BMC2.3 cells in DMEM plus 10% fetal calf serum were incubated with 3 μg/ml underivatized, aqueous soluble β(1-3)-glucan for various lengths of time. Nuclear extracts were prepared by the method of Dignam et al. (Nuc. Acid Res. 11:1475-1489 (1983)). Nuclear extracts were then incubated with ^32P-labeled DNA oligonucleotide for twenty minutes at room temperature. The sequence of the oligonucleotide used as the probe was […] (SEQ ID NO: 1). The reaction mixture was then separated on a 4% polyacrylamide gel and the results recorded autoradiographically.

[3] = system: receptor for underivatized, aqueous soluble β(1-3)-glucan on human leukocyte membranes; assay: Competition of ^3H-PGG-Glucan binding to human leukocyte membranes (oil/sucrose binding assay)
Method: Aminated glucan was prepared by reductive amination of curdlan and provided by Dr. Rolph Seljelid (University of Tromsφ, Tromsφ, Norway).
At the end of the incubation, 100 μl aliquots of reaction mixture were layered on top of a double layer density gradient consisting of 100 μl dibutyl phthalate (lower layer) and 100 μl 8% sucrose in PBS (upper layer) in 400 μl centrifuge tubes (Brinkman). The tubes were spun at 15,000×g for 4-5 minutes and the tips containing the membrane pellets were removed, incubated in 300 μl SOLVABLE™ (New England Nuclear, Boston, Mass.) overnight at 50° C. to dissolve the pellet, and then radioactivity determined by liquid scintillation counting. […] Alternatively, membranes were centrifuged directly in their incubation tubes at 15,000×g for 4-5 minutes at 37° C., the pellet washed with HBSS, then pellets solubilized and radioactivity determined by liquid scintillation counting.

- binding to its receptor at room temperature or below (in words) [2]: does not bind
- competition for ^3H-underivatized, aqueous soluble β(1-3)-glucan binding to HLM (in words) ([3]; FIG. 14): competes
- % Control Binding ([3]; addition at 0.1 mg/ml, ^3H-PGG-Glucan binding to human leukocyte membranes): 22%
Substance: underivatized, aqueous soluble β(1-3)-glucan [PGG-Glucan]
- specific binding of human peripheral blood PMN relative to mononuclear cells [1]: five to ten
- NF-IL6 protein-^32P DNA complex formation (EMSA, in words) (NF-IL6): time dependent increase in protein-DNA complexes
